Data published in ChEMBL document CHEMBL1909046, “DrugMatrix in vitro pharmacology data”.

Assays:
[1] = biological target: Epidermal growth factor receptor (Homo sapiens, UniProt P00533); assay: DRUGMATRIX: Protein Tyrosine Kinase, EGF Receptor enzyme inhibition (substrate: Poly(Glu:Tyr)); type: cell-based, Insect cells; conditions: insect cells; Not Active = under 50% inhibition at 10 µM
[2] = biological target: Platelet-activating factor receptor (Homo sapiens, UniProt P25105); type: tissue-based; further: in other assays of this panel Not Active means under 50% inhibition at 10 µM
[3] = DRUGMATRIX: GABAA, Flunitrazepam, Central radioligand binding (ligand: [3H] Flunitrazepam); type: cell membranes, Rattus norvegicus, Wistar, Brain, Membrane; conditions: Not Active = under 50% inhibition at 10 µM
[4] = biological target: T1, Cholecystokinin receptor type A (Homo sapiens, UniProt P32238); type: cell membranes, Membrane; conditions: 1321-n1; further: in other assays of this panel Not Active means under 50% inhibition at 10 µM
T1 sequence (P32238 whole entry): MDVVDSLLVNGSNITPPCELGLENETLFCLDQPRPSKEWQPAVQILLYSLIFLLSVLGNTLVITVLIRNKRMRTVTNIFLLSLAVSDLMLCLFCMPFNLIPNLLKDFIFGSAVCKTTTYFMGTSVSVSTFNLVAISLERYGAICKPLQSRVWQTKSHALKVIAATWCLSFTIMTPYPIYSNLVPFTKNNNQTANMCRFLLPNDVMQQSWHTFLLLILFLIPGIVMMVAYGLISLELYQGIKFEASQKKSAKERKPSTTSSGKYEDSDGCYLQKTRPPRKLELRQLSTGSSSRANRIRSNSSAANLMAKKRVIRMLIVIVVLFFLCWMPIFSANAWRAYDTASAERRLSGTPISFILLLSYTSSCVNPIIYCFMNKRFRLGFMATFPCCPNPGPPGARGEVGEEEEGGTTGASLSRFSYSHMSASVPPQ

[5] = biological target: T2, Nitric oxide synthase, inducible (Mus musculus, UniProt P29477); parameters: species or system Escherichia coli;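 further: inhibition of iNOS enzyme activity measured with L-arginine as substrate; in other assays of this panel Not Active means under 50% inhibition at 10 µM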
T2 sequence (P29477 whole entry): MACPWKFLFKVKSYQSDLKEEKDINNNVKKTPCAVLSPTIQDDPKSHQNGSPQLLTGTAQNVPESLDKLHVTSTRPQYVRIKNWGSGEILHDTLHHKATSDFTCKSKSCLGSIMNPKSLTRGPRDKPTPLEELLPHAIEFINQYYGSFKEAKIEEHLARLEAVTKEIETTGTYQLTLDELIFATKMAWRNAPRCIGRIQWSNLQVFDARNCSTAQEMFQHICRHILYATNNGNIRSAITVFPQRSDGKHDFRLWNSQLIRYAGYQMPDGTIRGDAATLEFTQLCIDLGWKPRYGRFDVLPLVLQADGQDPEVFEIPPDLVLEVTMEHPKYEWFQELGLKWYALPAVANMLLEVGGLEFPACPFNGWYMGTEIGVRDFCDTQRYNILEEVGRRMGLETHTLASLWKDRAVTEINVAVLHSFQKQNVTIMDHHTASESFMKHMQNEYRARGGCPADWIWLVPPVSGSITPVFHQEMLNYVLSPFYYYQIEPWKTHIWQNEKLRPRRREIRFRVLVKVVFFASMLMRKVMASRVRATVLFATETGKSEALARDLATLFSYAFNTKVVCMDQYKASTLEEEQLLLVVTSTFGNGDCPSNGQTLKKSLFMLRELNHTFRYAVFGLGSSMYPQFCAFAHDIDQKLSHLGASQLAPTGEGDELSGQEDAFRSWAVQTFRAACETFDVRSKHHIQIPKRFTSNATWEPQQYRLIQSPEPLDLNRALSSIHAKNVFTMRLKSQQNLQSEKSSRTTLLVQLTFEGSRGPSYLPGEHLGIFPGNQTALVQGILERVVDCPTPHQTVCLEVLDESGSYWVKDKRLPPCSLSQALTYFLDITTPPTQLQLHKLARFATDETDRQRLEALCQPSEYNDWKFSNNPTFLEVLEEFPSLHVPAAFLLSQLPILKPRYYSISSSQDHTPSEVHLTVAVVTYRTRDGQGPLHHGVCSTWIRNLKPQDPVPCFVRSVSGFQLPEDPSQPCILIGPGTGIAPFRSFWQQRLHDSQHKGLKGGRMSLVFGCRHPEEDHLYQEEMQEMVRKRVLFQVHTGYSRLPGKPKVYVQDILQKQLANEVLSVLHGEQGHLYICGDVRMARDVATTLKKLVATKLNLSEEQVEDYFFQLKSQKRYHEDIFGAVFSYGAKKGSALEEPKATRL

[6] = biological target: Estrogen receptor beta (Homo sapiens, UniProt Q92731); conditions: sf9; further: in other assays of this panel Not Active means under 50% inhibition at 10 µM
[7] = biological target: Receptor tyrosine-protein kinase erbB-2 (Homo sapiens, UniProt P04626); assay: biochemical; type: cell-based, Insect cells; conditions: insect cells
Receptor tyrosine-protein kinase erbB-2, sequence (P04626 whole entry): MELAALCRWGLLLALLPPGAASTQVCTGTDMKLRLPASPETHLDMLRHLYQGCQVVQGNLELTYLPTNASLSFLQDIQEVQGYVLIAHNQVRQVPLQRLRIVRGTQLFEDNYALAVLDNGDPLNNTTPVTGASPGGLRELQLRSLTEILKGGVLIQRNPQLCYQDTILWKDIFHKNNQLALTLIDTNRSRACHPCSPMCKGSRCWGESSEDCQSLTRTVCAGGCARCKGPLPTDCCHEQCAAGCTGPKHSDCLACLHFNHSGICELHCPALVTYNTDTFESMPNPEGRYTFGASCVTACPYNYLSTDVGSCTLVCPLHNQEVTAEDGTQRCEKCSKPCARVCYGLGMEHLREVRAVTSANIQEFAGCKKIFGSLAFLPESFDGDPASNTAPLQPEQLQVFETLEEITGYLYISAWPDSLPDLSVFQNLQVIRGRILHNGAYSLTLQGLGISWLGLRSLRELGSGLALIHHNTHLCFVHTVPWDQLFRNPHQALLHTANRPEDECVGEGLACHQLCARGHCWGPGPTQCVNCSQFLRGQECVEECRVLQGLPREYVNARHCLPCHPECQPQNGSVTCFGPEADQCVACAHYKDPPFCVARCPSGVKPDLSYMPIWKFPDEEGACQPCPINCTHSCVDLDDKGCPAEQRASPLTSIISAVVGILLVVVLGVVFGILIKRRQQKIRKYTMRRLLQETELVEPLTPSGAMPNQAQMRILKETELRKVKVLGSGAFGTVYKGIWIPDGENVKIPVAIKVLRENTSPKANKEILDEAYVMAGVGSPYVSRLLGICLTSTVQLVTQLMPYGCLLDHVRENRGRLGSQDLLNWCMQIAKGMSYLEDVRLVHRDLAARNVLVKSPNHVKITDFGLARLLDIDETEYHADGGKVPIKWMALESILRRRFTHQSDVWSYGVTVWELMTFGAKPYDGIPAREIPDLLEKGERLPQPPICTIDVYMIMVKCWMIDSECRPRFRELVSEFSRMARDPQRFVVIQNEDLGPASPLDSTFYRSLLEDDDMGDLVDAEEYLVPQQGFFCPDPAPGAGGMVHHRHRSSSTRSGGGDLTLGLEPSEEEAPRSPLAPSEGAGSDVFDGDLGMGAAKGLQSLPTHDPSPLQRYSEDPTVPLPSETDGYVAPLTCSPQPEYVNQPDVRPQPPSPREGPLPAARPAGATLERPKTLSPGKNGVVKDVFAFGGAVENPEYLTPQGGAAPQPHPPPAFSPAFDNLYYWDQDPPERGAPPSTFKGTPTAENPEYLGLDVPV

Platelet-activating factor receptor, sequence (P25105 whole entry): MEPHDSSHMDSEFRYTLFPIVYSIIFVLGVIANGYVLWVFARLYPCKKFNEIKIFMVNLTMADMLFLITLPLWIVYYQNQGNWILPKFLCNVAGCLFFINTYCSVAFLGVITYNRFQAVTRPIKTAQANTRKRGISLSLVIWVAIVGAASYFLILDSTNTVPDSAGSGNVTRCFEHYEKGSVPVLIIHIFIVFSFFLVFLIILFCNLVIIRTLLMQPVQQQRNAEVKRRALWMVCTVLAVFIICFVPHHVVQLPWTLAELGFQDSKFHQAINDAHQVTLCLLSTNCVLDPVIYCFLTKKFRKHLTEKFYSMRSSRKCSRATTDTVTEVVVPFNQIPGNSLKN
Estrogen receptor beta, sequence (Q92731 whole entry): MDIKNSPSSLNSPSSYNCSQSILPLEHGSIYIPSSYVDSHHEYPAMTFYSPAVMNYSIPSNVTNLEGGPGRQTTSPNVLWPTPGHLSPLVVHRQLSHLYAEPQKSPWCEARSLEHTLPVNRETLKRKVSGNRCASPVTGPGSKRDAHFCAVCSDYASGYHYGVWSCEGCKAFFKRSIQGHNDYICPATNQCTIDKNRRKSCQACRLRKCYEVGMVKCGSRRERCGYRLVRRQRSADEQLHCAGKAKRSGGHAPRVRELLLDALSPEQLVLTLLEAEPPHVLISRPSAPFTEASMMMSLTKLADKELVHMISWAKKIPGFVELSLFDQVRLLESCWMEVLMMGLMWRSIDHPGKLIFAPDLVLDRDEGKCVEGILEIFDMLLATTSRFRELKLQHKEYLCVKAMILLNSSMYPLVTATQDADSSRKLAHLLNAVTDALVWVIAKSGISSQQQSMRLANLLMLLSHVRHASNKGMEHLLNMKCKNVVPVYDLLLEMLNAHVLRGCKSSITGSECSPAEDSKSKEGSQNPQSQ
Epidermal growth factor receptor, sequence (P00533 whole entry): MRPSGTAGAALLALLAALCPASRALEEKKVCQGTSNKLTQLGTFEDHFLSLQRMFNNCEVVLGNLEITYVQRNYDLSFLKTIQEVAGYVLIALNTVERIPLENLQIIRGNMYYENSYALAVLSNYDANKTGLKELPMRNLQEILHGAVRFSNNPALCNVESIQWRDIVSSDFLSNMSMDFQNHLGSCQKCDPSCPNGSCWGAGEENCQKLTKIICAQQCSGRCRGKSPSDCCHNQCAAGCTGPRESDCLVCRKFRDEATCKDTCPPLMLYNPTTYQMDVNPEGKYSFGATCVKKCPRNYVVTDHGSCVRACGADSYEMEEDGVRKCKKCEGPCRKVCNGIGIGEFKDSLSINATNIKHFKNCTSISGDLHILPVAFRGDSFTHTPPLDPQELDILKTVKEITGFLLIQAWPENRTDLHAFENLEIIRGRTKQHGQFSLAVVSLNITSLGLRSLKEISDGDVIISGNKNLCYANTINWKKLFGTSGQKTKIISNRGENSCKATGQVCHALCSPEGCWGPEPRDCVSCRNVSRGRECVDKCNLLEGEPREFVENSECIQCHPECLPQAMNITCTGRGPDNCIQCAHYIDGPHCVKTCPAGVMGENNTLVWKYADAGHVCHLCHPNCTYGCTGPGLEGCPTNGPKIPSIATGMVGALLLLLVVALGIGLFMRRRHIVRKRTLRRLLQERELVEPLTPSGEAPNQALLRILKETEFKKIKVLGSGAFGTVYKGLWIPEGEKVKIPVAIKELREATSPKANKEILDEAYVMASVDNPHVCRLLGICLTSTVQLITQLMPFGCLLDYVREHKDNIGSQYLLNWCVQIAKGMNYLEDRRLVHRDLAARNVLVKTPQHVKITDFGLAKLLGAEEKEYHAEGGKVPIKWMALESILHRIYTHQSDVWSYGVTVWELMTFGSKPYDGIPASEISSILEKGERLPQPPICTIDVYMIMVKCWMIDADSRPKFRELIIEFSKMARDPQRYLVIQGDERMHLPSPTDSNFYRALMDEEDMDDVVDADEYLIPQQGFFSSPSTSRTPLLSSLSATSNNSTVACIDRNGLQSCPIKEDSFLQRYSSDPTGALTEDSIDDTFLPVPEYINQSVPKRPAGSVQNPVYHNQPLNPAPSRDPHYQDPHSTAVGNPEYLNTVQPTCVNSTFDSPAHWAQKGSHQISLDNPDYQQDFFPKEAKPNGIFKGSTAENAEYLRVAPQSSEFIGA

CC(C)C[C@H]1C(=O)N2CCC[C@H]2[C@]2(O)O[C@](NC(=O)[C@@H]3C=C4c5cccc6[nH]cc(c56)C[C@H]4N(C)C3)(C(C)C)C(=O)N12 [ERGOCRYPTINE]
Not Active: IC50 [1] | IC50 [2] | IC50 [3] | Ki [3] | IC50 [4] | IC50 [5] | IC50 [6] | IC50 [7]

C[C@]12CC[C@@H]3c4ccc(O)cc4CC[C@H]3[C@@H]1C[C@@H](O)[C@@H]2O [ESTRIOL]
Not Active: IC50 [1] | IC50 [2] | IC50 [3] | Ki [3] | IC50 [4] | IC50 [5] | IC50 [6] | IC50 [7]

C#C[C@]1(O)CC[C@H]2[C@@H]3CCC4=CC(=O)CC[C@]4(C)[C@H]3CC[C@@]21C [ETHISTERONE]
Not Active: IC50 [1] | IC50 [2] | IC50 [3] | Ki [3] | IC50 [4] | IC50 [5] | IC50 [6] | IC50 [7]

CC(C)(C(=O)O)c1ccc(C(O)CCCN2CCC(C(O)(c3ccccc3)c3ccccc3)CC2)cc1 (centres undefined) [FEXOFENADINE]
Not Active: IC50 [1] | IC50 [2] | IC50 [3] | Ki [3] | IC50 [4] | IC50 [5] | IC50 [6] | IC50 [7]

CN1CCN(c2c(F)cc3c(=O)c(C(=O)O)cn(CCF)c3c2F)CC1 [FLEROXACIN]
Not Active: IC50 [1] | IC50 [2] | IC50 [3] | Ki [3] | IC50 [4] | IC50 [5] | IC50 [6] | IC50 [7]

O=c1[nH]c(=O)n([C@H]2C[C@H](O)[C@@H](CO)O2)cc1F [FLOXURIDINE]
Not Active: IC50 [1] | IC50 [2] | IC50 [3] | Ki [3] | IC50 [4] | IC50 [5] | IC50 [6] | IC50 [7]

COC(=O)Nc1nc2cc(C(=O)c3ccc(F)cc3)ccc2[nH]1 [FLUBENDAZOLE]
Not Active: IC50 [1] | IC50 [2] | IC50 [3] | Ki [3] | IC50 [4] | IC50 [5] | IC50 [6] | IC50 [7]

CC(=O)OCC(=O)[C@@]1(O)CC[C@H]2[C@@H]3CCC4=CC(=O)CC[C@]4(C)[C@@]3(F)[C@@H](O)C[C@@]21C [FLUDROCORTISONE ACETATE]
Not Active: IC50 [1] | IC50 [2] | IC50 [3] | Ki [3] | IC50 [4] | IC50 [5] | IC50 [6] | IC50 [7]

CC(=O)OCC(=O)[C@@]12OC(C)(C)O[C@@H]1C[C@H]1[C@@H]3C[C@H](F)C4=CC(=O)C=C[C@]4(C)[C@@]3(F)[C@@H](O)C[C@@]12C [FLUOCINONIDE]
Not Active: IC50 [1] | IC50 [2] | IC50 [3] | Ki [3] | IC50 [4] | IC50 [5] | IC50 [6] | IC50 [7]

Cc1ccc(C)c(OCCCC(C)(C)C(=O)O)c1 [GEMFIBROZIL]
Not Active: IC50 [1] | IC50 [2] | IC50 [3] | Ki [3] | IC50 [4] | IC50 [5] | IC50 [6] | IC50 [7]

CCC1=C(C)CN(C(=O)NCCc2ccc(S(=O)(=O)NC(=O)N[C@H]3CC[C@H](C)CC3)cc2)C1=O [GLIMEPIRIDE]
Not Active: IC50 [1] | IC50 [2] | IC50 [3] | Ki [3] | IC50 [4] | IC50 [5] | IC50 [6] | IC50 [7]

Nc1cc(-c2ccncc2)c[nH]c1=O [INAMRINONE]
Not Active: IC50 [1] | IC50 [2] | IC50 [3] | Ki [3] | IC50 [4] | IC50 [5] | IC50 [6] | IC50 [7]

CCCCC1=NC2(CCCC2)C(=O)N1Cc1ccc(-c2ccccc2-c2nnn[nH]2)cc1 [IRBESARTAN]
Not Active: IC50 [1] | IC50 [2] | IC50 [3] | Ki [3] | IC50 [4] | IC50 [5] | IC50 [6] | IC50 [7]

CN1CCC(=C2c3ccccc3CC(=O)c3sccc32)CC1 [KETOTIFEN]
Not Active: IC50 [1] | IC50 [2] | IC50 [3] | Ki [3] | IC50 [4] | IC50 [5] | IC50 [6] | IC50 [7]

N[C@@H](Cn1ccc(=O)c(O)c1)C(=O)O [L-MIMOSINE]
Not Active: IC50 [1] | IC50 [2] | IC50 [3] | Ki [3] | IC50 [4] | IC50 [5] | IC50 [6] | IC50 [7]

CN1CCCC(CN2c3ccccc3Sc3ccccc32)C1 (centres undefined) [MEPAZINE]
Not Active: IC50 [1] | IC50 [2] | IC50 [3] | Ki [3] | IC50 [4] | IC50 [5] | IC50 [6] | IC50 [7]

Cc1cccc(C)c1NC(=O)C1CCCCN1C (centres undefined) [MEPIVACAINE]
Not Active: IC50 [1] | IC50 [2] | IC50 [3] | Ki [3] | IC50 [4] | IC50 [5] | IC50 [6] | IC50 [7]

CC(C)(C)NCC(O)COc1cccc2c1CC(O)C(O)C2 (centres undefined) [NADOLOL]
Not Active: IC50 [1] | IC50 [2] | IC50 [3] | Ki [3] | IC50 [4] | IC50 [5] | IC50 [6] | IC50 [7]

C[C@]12CC[C@H]3[C@@H](CCC4=CC(=O)CC[C@@H]43)[C@@H]1CC[C@@H]2O [NANDROLONE]
Not Active: IC50 [1] | IC50 [2] | IC50 [3] | Ki [3] | IC50 [4] | IC50 [5] | IC50 [6] | IC50 [7]

C[C@@H]1C/C=C/C=C/C=C/C=C/[C@H](O[C@@H]2O[C@H](C)[C@@H](O)[C@H](N)[C@@H]2O)C[C@@H]2O[C@](O)(C[C@@H](O)C[C@H]3O[C@@H]3/C=C/C(=O)O1)C[C@H](O)[C@H]2C(=O)O [NATAMYCIN]
Not Active: IC50 [1] | IC50 [2] | IC50 [3] | Ki [3] | IC50 [4] | IC50 [5] | IC50 [6] | IC50 [7]

NC(=O)c1cccnc1 [NIACINAMIDE]
Not Active: IC50 [1] | IC50 [2] | IC50 [3] | Ki [3] | IC50 [4] | IC50 [5] | IC50 [6] | IC50 [7]

CS(=O)(=O)Nc1ccc([N+](=O)[O-])cc1Oc1ccccc1 [NIMESULIDE]
Not Active: IC50 [1] | IC50 [2] | IC50 [3] | Ki [3] | IC50 [4] | IC50 [5] | IC50 [6] | IC50 [7]

C[C@@H]1O[C@@H](O[C@H]2C[C@@H](O)[C@]3(CO)[C@H]4[C@H](O)C[C@]5(C)[C@@H](C6=CC(=O)OC6)CC[C@]5(O)[C@@H]4CC[C@]3(O)C2)[C@H](O)[C@H](O)[C@H]1O [OUABAIN]
Not Active: IC50 [1] | IC50 [2] | IC50 [3] | Ki [3] | IC50 [4] | IC50 [5] | IC50 [6] | IC50 [7]
